# What was measured:
# Assay type in all cases: functional
# KM12 = experiment: Cytotoxicity against human KM12 cells assessed as cell growth at 10 uM after 48 hrs by SRB assay; conditions: KM12, 48 h, read-out: Activity
# [1] = Cytotoxicity against human SF295 cells assessed as cell growth at 10 uM after 48 hrs by SRB assay; conditions: SF-295, 48 h, read-out: Activity
# [2] = Cytotoxicity against human Hs 578T cells assessed as cell growth at 10 uM after 48 hrs by SRB assay; conditions: read-out: Activity
# [3] = Cytotoxicity against human RXF393 cells assessed as cell growth at 10 uM after 48 hrs by SRB assay; conditions: RXF 393, 48 h, read-out: Activity
# [4] = Cytotoxicity against human RPMI8226 cells assessed as cell growth at 10 uM after 48 hrs by SRB assay; conditions: RPMI-8226, 48 h, read-out: Activity
# NCI-H522 [5] = experiment: Cytotoxicity against human NCI-H522 cells assessed as cell mortality at 10 uM after 48 hrs by SRB assay; conditions: NCI-H522, 48 h
# [6] = Cytotoxicity against human BT549 cells assessed as cell growth at 10 uM after 48 hrs by SRB assay; conditions: BT-549, 48 h, read-out: Activity
# [7] = Cytotoxicity against human DU145 cells assessed as cell growth at 10 uM after 48 hrs by SRB assay; conditions: DU-145, 48 h, read-out: Activity
# [8] = Cytotoxicity against human OVCAR8 cells assessed as cell growth at 10 uM after 48 hrs by SRB assay; conditions: OVCAR-8, 48 h, read-out: Activity
# [9] = Cytotoxicity against human UACC62 cells assessed as cell growth at 10 uM after 48 hrs by SRB assay; conditions: UACC-62, 48 h, read-out: Activity
# [10] = Cytotoxicity against human Caki1 cells assessed as cell growth at 10 uM after 48 hrs by SRB assay; conditions: CAKI-1, 48 h, read-out: Activity
# NCI-H322M = experiment: Cytotoxicity against human NCI-H322M cells assessed as cell growth at 7.25 uM after 48 hrs by SRB assay; conditions: read-out: Activity
# [11] = Cytotoxicity against human BT549 cells assessed as cell growth at 7.25 uM after 48 hrs by SRB assay; conditions: BT-549, 48 h, read-out: Activity
# SK-MEL-2 = experiment: Cytotoxicity against human SK-MEL-2 cells assessed as cell growth at 7.25 uM after 48 hrs by SRB assay; conditions: SK-MEL-2, 48 h, read-out: Activity
# [12] = Cytotoxicity against human LOXIMVI cells assessed as cell growth at 7.25 uM after 48 hrs by SRB assay; conditions: LOX IMVI, read-out: Activity
# NCI-H226 = experiment: Cytotoxicity against human NCI-H226 cells assessed as cell mortality at 7.25 uM after 48 hrs by SRB assay; conditions: NCI-H226, 48 h
# [13] = Cytotoxicity against human HCC2998 cells assessed as cell growth at 7.25 uM after 48 hrs by SRB assay; conditions: HCC 2998, 48 h, read-out: Activity
# SK-MEL-5 = experiment: Cytotoxicity against human SK-MEL-5 cells assessed as cell growth at 7.25 uM after 48 hrs by SRB assay; conditions: SK-MEL-5, 48 h, read-out: Activity
# U-251 [14] = experiment: Cytotoxicity against human U251 cells assessed as cell growth at 7.25 uM after 48 hrs by SRB assay; conditions: U-251, 48 h, read-out: Activity
# [15] = Cytotoxicity against human SNB75 cells assessed as cell growth at 7.25 uM after 48 hrs by SRB assay; conditions: SNB-75, 48 h, read-out: Activity
# 786-0 = experiment: Cytotoxicity against human 786-0 cells assessed as cell growth at 7.25 uM after 48 hrs by SRB assay; conditions: 786-0, 48 h, read-out: Activity
# [16] = Cytotoxicity against human NCI-ADR-RES cells assessed as cell growth at 7.25 uM after 48 hrs by SRB assay; conditions: read-out: Activity
# [17] = Cytotoxicity against human HOP92 cells assessed as cell growth at 7.25 uM after 48 hrs by SRB assay; conditions: HOP-92, 48 h, read-out: Activity
# EKVX = experiment: Cytotoxicity against human EKVX cells assessed as cell growth at 2.13 uM after 48 hrs by SRB assay; conditions: read-out: Activity
# [18] = Cytotoxicity against human UO31 cells assessed as cell growth at 2.13 uM after 48 hrs by SRB assay; conditions: UO-31, 48 h, read-out: Activity
# [19] = Cytotoxicity against human UACC62 cells assessed as cell growth at 2.13 uM after 48 hrs by SRB assay; conditions: UACC-62, 48 h, read-out: Activity
# ACHN = experiment: Cytotoxicity against human ACHN cells assessed as cell growth at 2.13 uM after 48 hrs by SRB assay; conditions: read-out: Activity
# [20] = Cytotoxicity against human OVCAR4 cells assessed as cell growth at 2.13 uM after 48 hrs by SRB assay; conditions: OVCAR-4, 48 h, read-out: Activity
# MDA-MB-468 = experiment: Cytotoxicity against human MDA-MB-468 cells assessed as cell growth at 2.13 uM after 48 hrs by SRB assay; conditions: MDA-MB-468, 48 h, read-out: Activity
# U-251 [21] = experiment: Cytotoxicity against human U251 cells assessed as cell growth at 2.13 uM after 48 hrs by SRB assay; conditions: U-251, 48 h, read-out: Activity
# [22] = Cytotoxicity against human SF539 cells assessed as cell growth at 2.13 uM after 48 hrs by SRB assay; conditions: SF-539, 48 h, read-out: Activity
# [23] = Cytotoxicity against human DU145 cells assessed as cell growth at 2.13 uM after 48 hrs by SRB assay; conditions: DU-145, 48 h, read-out: Activity
# Malme-3M = experiment: Cytotoxicity against human MALME-3M cells assessed as cell growth at 2.13 uM after 48 hrs by SRB assay; conditions: read-out: Activity
# [24] = Cytotoxicity against human SNB75 cells assessed as cell growth at 2.13 uM after 48 hrs by SRB assay; conditions: SNB-75, 48 h, read-out: Activity
# MCF7 = experiment: Cytotoxicity against human MCF7 cells assessed as cell growth at 2.13 uM after 48 hrs by SRB assay; conditions: MCF7, 48 h, read-out: Activity
# NCI-H522 [25] = experiment: Cytotoxicity against human NCI-H522 cells assessed as cell mortality at 2.13 uM after 48 hrs by SRB assay; conditions: NCI-H522, 48 h
# [26] = Cytotoxicity against human HL-60(TB) cells assessed as cell growth at 2.13 uM after 48 hrs by SRB assay; conditions: HL-60, 48 h, read-out: Activity
# HT-29 = experiment: Cytotoxicity against human HT-29 cells assessed as cell growth at 2.13 uM after 48 hrs by SRB assay; conditions: HT-29, 48 h, read-out: Activity
# [27] = Cytotoxicity against human LOXIMVI cells assessed as cell growth at 2.13 uM after 48 hrs by SRB assay; conditions: LOX IMVI, read-out: Activity
# [28] = Cytotoxicity against human SNB19 cells assessed as cell growth at 2.13 uM after 48 hrs by SRB assay; conditions: SNB-19, 48 h, read-out: Activity
# A498 = experiment: Cytotoxicity against human A498 cells assessed as cell growth at 2.13 uM after 48 hrs by SRB assay; conditions: A498, 48 h, read-out: Activity
smiles,measurement,setting,value
CC(C)C[C@H](NC(=O)[C@H](CCCCN)NC(=O)[C@H](C)NC(=O)[C@H](CC(C)C)NC(=O)[C@H](CCCCN)NC(=O)[C@H](CCCCN)NC(=O)[C@H](C)NC(=O)[C@H](CC(C)C)NC(=O)[C@H](CCCCN)NC(=O)[C@H](C)NC(=O)[C@H](CC(C)C)NC(=O)[C@H](CCCCN)NC(=O)[C@@H](N)CC(=O)O)C(=O)N[C@@H](C)C(=O)N[C@@H](CCCCN)C(=O)N[C@@H](C)C(=O)N[C@@H](CCCCN)C(N)=O,growth at 10 µM,KM12,103%
same,growth at 10 µM,[1],103%
same,growth at 10 µM,[2],107%
same,growth at 10 µM,[3],110%
same,growth at 10 µM,[4],104%
same,mortality at 10 µM,NCI-H522 [5],14%
same,growth at 10 µM,[6],105%
same,growth at 10 µM,[7],109%
same,growth at 10 µM,[8],101%
same,growth at 10 µM,[9],104%
same,growth at 10 µM,[10],99.4%
CCCCCCCCCCCCCCCC(=O)NCCCC[C@H](NC(=O)[C@H](C)NC(=O)[C@H](CCCCN)NC(=O)[C@H](C)NC(=O)[C@H](CC(C)C)NC(=O)[C@H](CCCCN)NC(=O)[C@H](C)NC(=O)[C@H](CC(C)C)NC(=O)[C@H](CCCCN)NC(=O)[C@H](CCCCN)NC(=O)[C@H](C)NC(=O)[C@H](CC(C)C)NC(=O)[C@H](CCCCN)NC(=O)[C@H](C)NC(=O)[C@H](CC(C)C)NC(=O)[C@H](CCCCN)NC(=O)[C@@H](N)CC(=O)O)C(N)=O,growth at 7.25 µM,NCI-H322M,108%
same,growth at 7.25 µM,[11],104%
same,growth at 7.25 µM,SK-MEL-2,93.1%
same,growth at 7.25 µM,[12],95.6%
same,mortality at 7.25 µM,NCI-H226,0%
same,growth at 7.25 µM,[13],101%
same,growth at 7.25 µM,SK-MEL-5,102%
same,growth at 7.25 µM,U-251 [14],91.3%
same,growth at 7.25 µM,[15],93.6%
same,growth at 7.25 µM,786-0,107%
same,growth at 7.25 µM,[16],111%
same,growth at 7.25 µM,[17],113%
CCCCCCCCCCCCCCCCNCCO[C@H]1C[C@H](n2cc(C)c(=O)[nH]c2=O)O[C@@H]1C(=O)NCCCC[C@H](NC(=O)[C@H](C)NC(=O)[C@H](CCCCN)NC(=O)[C@H](C)NC(=O)[C@H](CC(C)C)NC(=O)[C@H](CCCCN)NC(=O)[C@H](C)NC(=O)[C@H](CC(C)C)NC(=O)[C@H](CCCCN)NC(=O)[C@H](CCCCN)NC(=O)[C@H](C)NC(=O)[C@H](CC(C)C)NC(=O)[C@H](CCCCN)NC(=O)[C@H](C)NC(=O)[C@H](CC(C)C)NC(=O)[C@H](CCCCN)NC(=O)[C@@H](N)CC(=O)O)C(N)=O,growth at 2.13 µM,EKVX,103%
same,growth at 2.13 µM,[18],81.2%
same,growth at 2.13 µM,[19],104%
same,growth at 2.13 µM,ACHN,106%
same,growth at 2.13 µM,[20],112%
same,growth at 2.13 µM,MDA-MB-468,100%
same,growth at 2.13 µM,U-251 [21],92.7%
same,growth at 2.13 µM,[22],98.8%
same,growth at 2.13 µM,[23],109%
same,growth at 2.13 µM,Malme-3M,104%
same,growth at 2.13 µM,[24],96.1%
same,growth at 2.13 µM,MCF7,98.9%
same,mortality at 2.13 µM,NCI-H522 [25],11%
same,growth at 2.13 µM,[26],93.8%
same,growth at 2.13 µM,HT-29,102%
same,growth at 2.13 µM,[27],94.6%
same,growth at 2.13 µM,[28],106%
same,growth at 2.13 µM,A498,109%

# Source: ChEMBL document CHEMBL3822390, “Synthesis, characterization and anti-cancer activity of a peptide nucleolipid bioconjugate” (2016)
